Consider 8 molecules from PMC10341549, “Inhibitory Investigations of Acyl-CoA Derivatives against Human Lipoxygenase Isozymes” (International Journal of Molecular Sciences, 2023).

Common to all, as to format: biochemical
The target in assay [1] is T1, h15-LOX-1 (Homo sapiens, UniProt P16050).
T1 construct: His tag; made in house
T1 sequence (P16050 1-662): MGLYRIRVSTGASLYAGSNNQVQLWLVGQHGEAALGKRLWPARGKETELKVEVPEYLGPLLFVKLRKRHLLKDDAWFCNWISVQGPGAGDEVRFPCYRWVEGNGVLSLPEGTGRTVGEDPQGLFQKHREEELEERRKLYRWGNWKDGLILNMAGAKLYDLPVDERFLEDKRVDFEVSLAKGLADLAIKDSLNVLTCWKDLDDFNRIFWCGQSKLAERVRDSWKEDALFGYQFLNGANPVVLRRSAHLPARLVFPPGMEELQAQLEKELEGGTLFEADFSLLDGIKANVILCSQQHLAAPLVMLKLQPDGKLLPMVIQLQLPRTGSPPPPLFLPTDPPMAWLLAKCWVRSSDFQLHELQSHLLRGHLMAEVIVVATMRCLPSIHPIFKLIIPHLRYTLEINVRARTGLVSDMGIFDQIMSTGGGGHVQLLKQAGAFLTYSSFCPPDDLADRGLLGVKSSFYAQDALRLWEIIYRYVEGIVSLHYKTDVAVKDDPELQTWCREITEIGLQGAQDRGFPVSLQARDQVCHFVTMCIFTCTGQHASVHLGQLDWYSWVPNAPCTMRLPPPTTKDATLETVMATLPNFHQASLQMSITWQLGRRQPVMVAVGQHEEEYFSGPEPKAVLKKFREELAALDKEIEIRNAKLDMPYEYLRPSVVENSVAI
Description: IC50 determination against h15-LOX-1. Particulars: 10 μM AA, 25 mM HEPES pH 7.5, 0.01% Triton X-100, 22 °C. As for the experimental part: (§1) Overexpression and purification of his-tagged wild-type h12-LOX (Uniprot entry P18054), h15-LOX-1 (Uniprot entry P16050), and h15-LOX-2 (Uniprot entry O15296) were performed using nickel-affinity chromatography. The purity of h12-LOX, h15-LOX-1, and h15-LOX-2 was assessed using SDS gel as greater than 85%, and metal content was assessed with a Finnigan inductively coupled plasma mass spectrometer (ICP-MS, Thermo Fischer Scientific, San Jose, USA) via comparison with iron standard solution. Cobalt-EDTA was used as an internal standard. WT h5-LOX (UniProt entry P09917) was expressed in Rosetta 2 cells (Novagen) transformed with the pET14b-Stable-5-LOX plasmid (a gift from Marcia Newcomer of Louisiana State University) and grown in Terrific Broth containing 34 μg/mL chloramphenicol and 100 μg/mL ampicillin at 37 °C for 3.5 h, then placed at 20 °C for an additional 26 h. Cells were pelleted and resuspended in 50 mM Tris (pH 8.0), 500 mM NaCl, 20 mM imidazole with 1 μM pepstatin, 100 μM PMSF, and DNaseI (Sigma, Kanagawa, Japan). The cells were lysed in a French pressure cell and centrifuged at 40,000× g for 20 min at 4 °C. Saturated ammonium sulfate was added to achieve a final solution of 10% and inverted several times. The lysate was centrifuged at 40,000× g for 10 min at 4 °C. The pellet was discarded, and the supernatant was increased to a final concentration of 50% ammonium sulfate. The supernatant was rotated for 10 min at 4 °C then centrifuged at 40,000× g for 10 min at 4 °C. The pellet was split into 150 mg aliquots. The WT h5-LOX used for the kinetics in this work was not purified due to a dramatic loss in activity and was therefore prepared as an ammonium-sulfate precipitate.
IC50 values for each acyl-CoA were measured against h5-LOX, h12-LOX, h15-LOX-1, and h15-LOX-2. The reactions were carried out in 25 mM HEPES buffer (pH 8.00), 0.01% Triton X-100, and 10 μM AA for h12-LOX; 25 mM HEPES buffer (pH 7.5), 0.01% Triton X-100, and 10 μM AA for h15-LOX-1 and h15-LOX-2; and 50 mM HEPES buffer (pH 7.5), 100 µM EDTA, 50 mM NaCl, 200 µM ATP, and 10 μM AA for h5-LOX. IC50 reactions were implemented with h15-LOX-1 (0.125 μM), h12-LOX (0.300 μM), h15-LOX-2 (0.5 μM), and h5-LOX (∼600 nM ammonium sulfate salt) at 22 °C in a 1 cm^2 quartz cuvette containing 2 mL of the according buffer and 10 μM AA for no longer than 2 min to avoid any cleavage of the acyl-coenzyme A. Inhibitor concentrations ranging from 50 μM to 0.01 μM were used. All reactions were conducted using a Cary-UV Vis spectrophotometer (Agilent, Santa Clara, CA, USA). The fastest rates over 15 s intervals were recorded. IC50 values were obtained by determining the percent of inhibition of the enzymatic rate at ten inhibitor concentrations and plotting the rate against the inhibitor concentration, followed by a hyperbolic saturation curve fit. The saturation curve fits were performed in duplicate or triplicate, depending on the quality of the data. […] Through HPLC monitoring, we were able to determine a lack of degradation of the fatty acyl-CoAs over the first hour.

In assay [2] the target is T2, h5-LOX (Homo sapiens, UniProt P09917, C241A/C562A/D45S/DEL41-43/F15H/K654E/K655N/K656L/L77S/N44G/W14E/W76G).
T2 sequence (P09917 with tags, fused parts or gaps W14E/F15H/DEL41-43/N44G/D45S/W76G/L77S/C241A/C562A/K654E/K655N/K656L): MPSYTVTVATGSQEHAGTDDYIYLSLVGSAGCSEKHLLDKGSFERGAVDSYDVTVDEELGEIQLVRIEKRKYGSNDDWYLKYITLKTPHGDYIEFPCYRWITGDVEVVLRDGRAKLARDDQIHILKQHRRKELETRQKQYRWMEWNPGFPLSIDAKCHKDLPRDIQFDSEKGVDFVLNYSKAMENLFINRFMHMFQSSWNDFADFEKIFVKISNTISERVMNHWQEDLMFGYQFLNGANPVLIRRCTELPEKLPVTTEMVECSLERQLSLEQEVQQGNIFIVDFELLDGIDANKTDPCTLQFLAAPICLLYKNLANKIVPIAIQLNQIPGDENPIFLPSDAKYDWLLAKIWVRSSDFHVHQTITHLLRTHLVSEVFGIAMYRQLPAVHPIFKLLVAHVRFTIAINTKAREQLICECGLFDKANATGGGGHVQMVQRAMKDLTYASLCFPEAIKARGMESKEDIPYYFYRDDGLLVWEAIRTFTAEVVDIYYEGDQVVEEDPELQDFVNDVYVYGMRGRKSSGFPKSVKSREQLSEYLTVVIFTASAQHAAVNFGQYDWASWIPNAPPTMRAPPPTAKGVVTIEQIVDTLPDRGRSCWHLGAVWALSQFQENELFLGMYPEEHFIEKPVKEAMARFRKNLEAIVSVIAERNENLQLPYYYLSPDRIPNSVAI
The assay can be described thus: IC50 determination against h5-LOX. Particulars: 10 μM AA, 50 mM HEPES pH 7.5, 200 µM ATP, ammonium-sulfate precipitate enzyme, 22 °C.

Assay [3] deals with T2, h5-LOX. Description: IC50 determination against h5-LOX. The settings on record: 10 μM AA, 50 mM HEPES pH 7.5, 200 µM ATP, ammonium-sulfate precipitate enzyme, 22 °C. As to the method: as §1
IC50 values for each acyl-CoA were measured against h5-LOX, h12-LOX, h15-LOX-1, and h15-LOX-2. […] The fastest rates over 15 s intervals were recorded. […]
The source holds these as a separate data set.

Structures are written as SMILES. Bounds are passed on as bounds.

With `CCCCC/C=C\C/C=C\C/C=C\C/C=C\CCCC(=O)SCCNC(=O)CCNC(=O)[C@H](O)C(C)(C)COP(=O)(O)OP(=O)(O)OC[C@H]1O[C@@H](n2cnc3c(N)ncnc32)[C@H](O)[C@@H]1OP(=O)(O)O` [Arachidonoyl-CoA (20:4), arachidonoyl-coenzyme A (20:4)], the results for the IC50 in assay [1] and in assay [2] were more than 500 µM and more than 200 µM, respectively.
In the case of `CC/C=C\C/C=C\C/C=C\C/C=C\C/C=C\C/C=C\CCC(=O)SCCNC(=O)CCNC(=O)C(O)C(C)(C)COP(=O)(O)OP(=O)(O)OC[C@H]1O[C@@H](n2cnc3c(N)ncnc32)[C@H](O)[C@@H]1OP(=O)(O)O` (some centres unmarked) [Docosahexaenoyl CoA (22:6), docosahexaenoyl-coenzyme A (22:6)], the half-inhibitory concentration (IC50) was more than 500 µM in assay [1] and more than 200 µM in assay [3].
Regarding `CCCCC/C=C\C/C=C\CCCCCCCC(=O)SCCNC(=O)CCNC(=O)[C@H](O)C(C)(C)COP(=O)(O)OP(=O)(O)OC[C@H]1O[C@@H](n2cnc3c(N)ncnc32)[C@H](O)[C@@H]1OP(=O)(O)O` [Linoleoyl-CoA (18:2), linoleoyl-CoA], the half-maximal inhibitory concentration (IC50) in assay [3] is more than 50 µM; in assay [2], more than 100 µM.
With `CCCCCCCC/C=C\CCCCCCCC(=O)SCCNC(=O)CCNC(=O)[C@H](O)C(C)(C)COP(=O)(O)OP(=O)(O)OC[C@H]1O[C@@H](n2cnc3c(N)ncnc32)[C@H](O)[C@@H]1OP(=O)(O)O` [Oleoyl-CoA (18:1), oleoyl-coenzyme A (18:1)], the IC50 in assay [1] was 39 ± 2 µM; in assay [2], more than 50 µM.
The corresponding values for `CCCCCC/C=C\CCCCCCCC(=O)SCCNC(=O)CCNC(=O)[C@H](O)C(C)(C)COP(=O)(O)OP(=O)(O)OC[C@H]1O[C@@H](n2cnc3c(N)ncnc32)[C@H](O)[C@@H]1OP(=O)(O)O` [Palmitoleoyl-CoA (16:1), palmitoleoyl-coenzyme A (16:1)] are more than 500 µM and 2 ± 0.4 µM.
As for `CCCCCCCCCCCCCCCC(=O)SCCNC(=O)CCNC(=O)[C@H](O)C(C)(C)COP(=O)(O)OP(=O)(O)OC[C@H]1O[C@@H](n2cnc3c(N)ncnc32)[C@H](O)[C@@H]1OP(=O)(O)O` [Palmitoyl-CoA (16:0), palmitoyl-coenzyme A (16:0)], the half-inhibitory concentration (IC50) was more than 500 µM in assay [1] and 3.3 ± 0.3 µM in assay [2].
The corresponding values for `CCCCCCCCCCCCCCCCCC(=O)SCCNC(=O)CCNC(=O)[C@H](O)C(C)(C)COP(=O)(O)OP(=O)(O)OC[C@H]1O[C@@H](n2cnc3c(N)ncnc32)[C@H](O)[C@@H]1OP(=O)(O)O` [Stearoyl-CoA (18:0), stearoyl-coenzyme A (18:0)] are 4.2 ± 0.6 µM and more than 50 µM.
As to `CCCCC/C=C\C/C=C\C/C=C\CCCCC(=O)SCCNC(=O)CCNC(=O)[C@H](O)C(C)(C)COP(=O)(O)OP(=O)(O)OC[C@H]1O[C@@H](n2cnc3c(N)ncnc32)[C@H](O)[C@@H]1OP(=O)(O)O` [ɣ-Linolenoyl-CoA (18:3), ɣ-linolenoyl-coenzyme A (18:3)], the values for the IC50 in assay [1], in assay [3] and in assay [2] were more than 500 µM, more than 200 µM and more than 500 µM, respectively.

Broadly, the IC50 is the concentration that gives 50% inhibition. High values mean weaker potency, low ones greater potency.
